Test results: PMC10800876, “Evaluation of proline-rich antimicrobial peptides as potential lead structures for novel antimycotics against Cryptococcus neoformans” (Frontiers in Microbiology, 2024)
Where two headings read alike, the source gives them in different places. Residues, ends and D or L forms follow the SMILES beside them.

What was measured:
[1] = test system: C. neoformans H99 (serotype A); test: microbe, parasite or virus in culture; settings: Cryptococcus neoformans
[2] = test system: C. neoformans KN99α (serotype A, mating type MATα); test: microbe, parasite or virus in culture; settings: Cryptococcus neoformans
[3] = test system: C. neoformans strains 1841, H99, and KN99α; test: Broth microdilution assay (MIC); assay type: cell-based, Cryptococcus neoformans
[4] = test system: C. neoformans 1841 (serotype D); test: microbe, parasite or virus in culture; settings: Cryptococcus neoformans
[5] = test system: C. neoformans 1841; test: Antifungal activity assay (CFU on SAB agar); assay type: cell-based, Cryptococcus neoformans; settings: treatment 3 h, 30 °C, mean ± SD, n = 4; for cell count C. neoformans 1841, 24 h: CFU counted after 24 h; for cell count C. neoformans 1841, 48 h: CFU counted after 48 h
[6] = test system: C. neoformans KN99α; test: Antifungal activity assay (CFU on SAB agar); assay type: cell-based, Cryptococcus neoformans; settings: treatment 3 h, 30 °C, mean ± SD, n = 4; for cell count C. neoformans KN99α, 24 h: CFU counted after 24 h; for cell count C. neoformans KN99α, 48 h: CFU counted after 48 h
[7] = test system: C. neoformans H99; test: Antifungal activity assay (CFU on SAB agar); assay type: cell-based, Cryptococcus neoformans; settings: treatment 3 h, 30 °C, mean ± SD, n = 4; for cell count C. neoformans H99, 24 h: CFU counted after 24 h; for cell count C. neoformans H99, 48 h: CFU counted after 48 h
[8] = test system: C. neoformans KN99α (serotype A, mating type MATα); settings: broth microdilution, 50% SAB in phosphate buffer, 30°C, n = 6
[9] = test system: C. neoformans 1841 (serotype D); settings: broth microdilution, 50% SAB in phosphate buffer pH 7.5, 5 × 10^4 CFU/mL, 30°C; for MIC (μmol/L) 1841 24 h: read after 24 h, mean of six replicates (n = 6); for MIC (μmol/L) 1841 48 h: read after 48 h, n = 6
[10] = test system: C. neoformans H99 (serotype A); settings: broth microdilution, 50% SAB in phosphate buffer, 30°C, n = 6; for MIC (μmol/L) H99 24 h: read after 24 h; for MIC (μmol/L) H99 48 h: read after 48 h
[11] = test system: C. neoformans strains 1841, H99, and KN99α; test: Antifungal activity assay (CFU); assay type: cell-based, Cryptococcus neoformans; settings: only small colonies appearing after more than 24 h
[12] = test system: C. neoformans 1841; test: Time-kill assay; assay type: cell-based, Cryptococcus neoformans; settings: 2.5 μmol/L, 30°C, up to 24 h
Procedure: The kinetic effects of the antifungal activity were determined by diluting overnight cultures to 5 × 10^4 CFU/mL with 50% SAB in phosphate buffer. Aqueous peptide solutions (20 μL) were added to the cell suspension (80 μL) to give a final peptide concentration of 2.5 μmol/L. Samples were incubated at 30°C on an orbital shaker (750 rpm, Titramax 1,000, Heidolph Instruments GmbH & Co. KG) for 24 h. Before incubation (0 min) and after 45 min, 90 min, 3 h, 6 h, and 24 h incubation, aliquots (10 μL) of samples were taken and diluted with phosphate buffer (10 mmol/L, pH 7.5) to observe countable cell colonies. Aliquots (100 μL) of the diluted cell suspensions were plated on SAB agar plates. Plates were incubated at 30°C and colonies were counted after 24 h.

[13] = 24 h, read-out: MIC (mg/L) H99 24 h
[14] = 24 h, read-out: MIC (μmol/L) H99 24 h
[15] = 48 h, read-out: MIC (mg/L) H99 48 h
[16] = 48 h, read-out: MIC (μmol/L) H99 48 h
[17] = 24 h, read-out: MIC (mg/L) KN99α 24 h
[18] = 24 h, read-out: MIC (μmol/L) KN99α 24 h
[19] = 48 h, read-out: MIC (mg/L) KN99α 48 h
[20] = 48 h, read-out: MIC (μmol/L) KN99α 48 h
[21] = Cryptococcus neoformans, read-out: MIC
[22] = 24 h, pH 7.5, read-out: MIC (μmol/L) 1841 24 h
[23] = 24 h, read-out: MIC (mg/L) 1841 24 h
[24] = 48 h, pH 7.5, read-out: MIC (μmol/L) 1841 48 h
[25] = 48 h, read-out: MIC (mg/L) 1841 48 h

Compound	MIC [3]	cell count C. neoformans 1841, 24 h ([5]; 0.25 µmol/L)	cell count C. neoformans 1841, 48 h ([5]; 0.25 µmol/L)	cell count C. neoformans 1841, 24 h ([5]; 2.5 µmol/L)	cell count C. neoformans 1841, 48 h ([5]; 2.5 µmol/L)	cell count C. neoformans 1841, 24 h ([5]; 25 µmol/L)	cell count C. neoformans 1841, 48 h ([5]; 25 µmol/L)	cell count C. neoformans KN99α, 24 h ([6]; 0.25 µmol/L)	cell count C. neoformans KN99α, 48 h ([6]; 0.25 µmol/L)	cell count C. neoformans KN99α, 24 h ([6]; 2.5 µmol/L)	cell count C. neoformans KN99α, 48 h ([6]; 2.5 µmol/L)	cell count C. neoformans KN99α, 24 h ([6]; 25 µmol/L)	cell count C. neoformans KN99α, 48 h ([6]; 25 µmol/L)	cell count C. neoformans H99, 24 h ([7]; 0.25 µmol/L)	cell count C. neoformans H99, 48 h ([7]; 0.25 µmol/L)	cell count C. neoformans H99, 24 h ([7]; 2.5 µmol/L)	cell count C. neoformans H99, 48 h ([7]; 2.5 µmol/L)	cell count C. neoformans H99, 24 h ([7]; 25 µmol/L)	cell count C. neoformans H99, 48 h ([7]; 25 µmol/L)	MIC (μmol/L) KN99α 24 h ([8]; read after 24 h) [µmol/L]	also measured
OC(Cn1cncn1)(Cn1cncn1)c1ccc(F)cc1F [Fluconazole, fluconazole, reference compound]	4 to 32 µg/mL	2.5 ± 0.0 x 10^4 CFU/mL	2.5 ± 0.0 x 10^4 CFU/mL	2.7 ± 0.2 x 10^4 CFU/mL	2.7 ± 0.2 x 10^4 CFU/mL	1.9 ± 0.3 x 10^4 CFU/mL	1.9 ± 0.3 x 10^4 CFU/mL	2.9 ± 0.5 x 10^4 CFU/mL	3.0 ± 0.6 x 10^4 CFU/mL	3.3 ± 0.6 x 10^4 CFU/mL	3.4 ± 0.7 x 10^4 CFU/mL	3.2 ± 0.5 x 10^4 CFU/mL	3.3 ± 0.5 x 10^4 CFU/mL	3.4 ± 0.5 x 10^4 CFU/mL	3.8 ± 0.3 x 10^4 CFU/mL	3.4 ± 0.4 x 10^4 CFU/mL	3.5 ± 0.4 x 10^4 CFU/mL	3.3 ± 0.8 x 10^4 CFU/mL	3.5 ± 0.8 x 10^4 CFU/mL	–	MIC [1, 13]: 16 mg/L; MIC [1, 14]: 53 µmol/L; MIC [1, 15]: 16 to 32 mg/L; MIC [1, 16]: 53 to 105 µmol/L; MIC [2, 17]: 4 mg/L; MIC [2, 18]: 13 µmol/L; MIC [2, 19]: 8 mg/L; MIC [2, 20]: 26 µmol/L; MIC [3, 21]: 13 to 105 µM; MIC [4, 22]: 105 µmol/L; MIC [4, 23]: 32 mg/L; MIC [4, 24]: 105 µmol/L; MIC [4, 25]: 32 mg/L
Nc1[nH]c(=O)ncc1F [Flucytosine, flucytosine, reference compound]	≥ 64 µg/mL	2.2 ± 0.1 x 10^4 CFU/mL	2.2 ± 0.1 x 10^4 CFU/mL	2.4 ± 0.2 x 10^4 CFU/mL	2.4 ± 0.2 x 10^4 CFU/mL	2.4 ± 0.0 x 10^4 CFU/mL	2.4 ± 0.0 x 10^4 CFU/mL	3.4 ± 0.7 x 10^4 CFU/mL	3.4 ± 0.8 x 10^4 CFU/mL	3.1 ± 0.5 x 10^4 CFU/mL	3.2 ± 0.5 x 10^4 CFU/mL	3.3 ± 0.5 x 10^4 CFU/mL	3.3 ± 0.5 x 10^4 CFU/mL	3.1 ± 0.8 x 10^4 CFU/mL	3.2 ± 0.7 x 10^4 CFU/mL	3.7 ± 0.4 x 10^4 CFU/mL	3.9 ± 0.3 x 10^4 CFU/mL	3.1 ± 0.5 x 10^4 CFU/mL	3.3 ± 0.6 x 10^4 CFU/mL	–	MIC [1, 13]: 64 mg/L; MIC [1, 14]: 496 µmol/L; MIC [1, 15]: > 128 mg/L; MIC [1, 16]: > 992 µmol/L; MIC [2, 17]: 128 mg/L; MIC [2, 18]: 992 µmol/L; MIC [2, 19]: > 128 mg/L; MIC [2, 20]: > 992 µmol/L; MIC [3, 21]: ≥ 496 µM; MIC [4, 22]: 496 µmol/L; MIC [4, 23]: 64 mg/L; MIC [4, 24]: 992 µmol/L; MIC [4, 25]: 128 mg/L
CC[C@H](C)[C@H](NC(=O)[C@@H]1CCCN1C(=O)[C@H](CCCNC(=N)N)NC(=O)[C@@H]1CCCN1C(=O)[C@@H]1CCCN1C(=O)[C@@H](NC(=O)[C@@H]1CCCN1C(=O)[C@H](CCCNC(=N)N)NC(=O)[C@@H]1CCCN1C(=O)[C@H](CC(C)C)NC(=O)[C@H](Cc1ccc(O)cc1)NC(=O)[C@H](CO)NC(=O)CNC(=O)[C@H](CCCCN)NC(=O)[C@H](CC(=O)O)NC(=O)[C@@H](N)C(C)C)[C@@H](C)O)C(=O)N[C@@H](Cc1ccc(O)cc1)C(=O)N[C@@H](CC(N)=O)C(=O)N[C@@H](CCCNC(=N)N)C(=O)N[C@@H](CC(N)=O)C(=O)O [Pyrrhocoricin, reference compound] (H-VDKGSYLPRPTPPRPIYNRN-OH)	> 55 µM	–	–	–	–	–	–	–	–	–	–	–	–	–	–	–	–	–	–	>55	MIC (μmol/L) KN99α 48 h ([8]; read after 48 h): >55 µmol/L; MIC (μmol/L) 1841 24 h [9]: >55 µmol/L; MIC (μmol/L) 1841 48 h [9]: >55 µmol/L; MIC (μmol/L) H99 24 h [10]: >55 µmol/L; MIC (μmol/L) H99 48 h [10]: >55 µmol/L
RRIRPRPPRLPRPRPRPLPFPRPGPRPIPRPLPFPRPGPRPIPRPLPFPRPGPRPIPRP-OH [Bac7 1–60, reference compound]	1.1 µM	–	–	–	–	–	–	–	–	–	–	–	–	–	–	–	–	–	–	1.1	MIC (mg/L) KN99α 48 h ([8]; read after 48 h): 8 to 16 mg/L; MIC (μmol/L) KN99α 48 h ([8]; read after 48 h): 1.1 to 2.2 µmol/L; MIC (μmol/L) 1841 24 h [9]: 1.1 µmol/L; MIC (μmol/L) 1841 48 h [9]: 1.1 µmol/L; MIC (μmol/L) H99 24 h [10]: 1.1 µmol/L; MIC (μmol/L) H99 48 h [10]: 1.1 µmol/L
gu-OIOIORPVYOPRPRPPHPRL-OH [Api795]	–	1.4 ± 0.6 x 10^4 CFU/mL	1.4 ± 0.6 x 10^4 CFU/mL	2.1 ± 0.1 x 10^4 CFU/mL	2.1 ± 0.1 x 10^4 CFU/mL	0.2 ± 0.0 x 10^4 CFU/mL	0.2 ± 0.0 x 10^4 CFU/mL	2.9 ± 0.3 x 10^4 CFU/mL	2.9 ± 0.4 x 10^4 CFU/mL	1.7 ± 0.7 x 10^4 CFU/mL	1.9 ± 0.8 x 10^4 CFU/mL	0.1 ± 0.1 x 10^4 CFU/mL	0.4 ± 0.1 x 10^4 CFU/mL	3.3 ± 0.3 x 10^4 CFU/mL	3.6 ± 0.6 x 10^4 CFU/mL	1.4 ± 0.4 x 10^4 CFU/mL	2.0 ± 0.2 x 10^4 CFU/mL	0.1 ± 0.0 x 10^4 CFU/mL	0.5 ± 0.2 x 10^4 CFU/mL	1.6 to 3.2	MIC (mg/L) KN99α 24 h ([8]; read after 24 h): 4 to 8 mg/L; MIC (μmol/L) KN99α 48 h ([8]; read after 48 h): 3.2 µmol/L; MIC (μmol/L) 1841 24 h [9]: 1.6 µmol/L; MIC (μmol/L) 1841 48 h [9]: 3.2 µmol/L; colony formation on agar [11]: delayed colony formation; time-dependent antifungal effect [12]: delayed antifungal effect; MIC (μmol/L) H99 24 h [10]: 3.2 µmol/L; MIC (μmol/L) H99 48 h [10]: 3.2 µmol/L
